How the values were obtained:
[1] = test system: BT474 cell tumors (breast carcinoma cell line); test: In vivo efficacy, BT474 tumor bearing mice; parameters: species or system mouse
Protocol: (§1) In addition to the LISN xenograft efficacy studies, Example 57 has also been assessed in vivo in two other mouse models of cancer, including: Colo-205 tumor bearing mice (colon carcinoma cell line) and BT474 tumor bearing mice (breast carcinoma cell line). Forty female nude mice bearing Colo-205 tumors (average tumor size of 200 mm3) were randomized into five groups of eight mice and dosed with either vehicle (20% SBE pH3.5) or Example 57 at 100, 30, 10 mg/kg QD or 30 mg/kg BID for 21 days. The groups of mice dosed with the higher doses of Example 57 (100 mg/kg QD and 30 mg/kg BID) lost greater than 20% body weight within 10 days of dosing so were taken off the study and allowed to recover. […] The higher doses of 100 mg/kg QDx10 and 30 mg/kg BIDx10 achieved 72 and 49% tumor growth inhibition respectively.
Due to the body weight loss seen with the higher doses in the Colo-205 xenograft efficacy study, the dosing regime was altered for the follow up BT474 study. Forty female nude mice bearing subcutaneous BT474 cell tumors (average tumor size of 200 mm3) were randomized into five groups each containing eight mice and dosed with either vehicle (20% SBE pH3.5) or Example 57 at 60, 30 or 15 mg/kg QD or 15 mg/kg BID for 21 days. Note the maximal QD dose was reduced from 100 mg/kg to 60 mg/kg and the BID dose reduced from 30 mg/kg to 15 mg/kg. In addition to these changes the mice in this study were given weekend holidays from dosing.

[2] = test system: Colo-205 tumors (colon carcinoma cell line); test: In vivo efficacy, Colo-205 tumor bearing mice; parameters: species or system mouse
Protocol: as §1

`COc1cc(N2CCC(N3CCN(CCF)CC3)CC2)ccc1Nc1nccc(-c2c(-c3cccc(C(=O)Nc4c(F)cccc4F)c3)nc3ccccn23)n1` [Example 57, N-(2,6-difluorophenyl)-3-[3-(2-{[4-{4-[4-(2-fluoroethyl)-1-piperazinyl]-1-piperidinyl}-2-(methyloxy)phenyl]amino}-4-pyrimidinyl)imidazo[1,2-a]pyridin-2-yl]benzamide] gave a tumor growth inhibition ([1]; BT474, 15 mg/kg BIDx21, weekend holidays from dosing) of 54%, a tumor growth inhibition ([1]; BT474, 30 mg/kg QDx21, weekend holidays from dosing) of 37% and a tumor growth inhibition ([1]; BT474, 60 mg/kg QDx21, weekend holidays from dosing) of 37%. For the same compound, the body weight loss ([1]; BT474, all groups) was “no body weight loss”, the tumor growth inhibition ([1]; BT474, third QDx21 dose group (15 mg/kg QD per study design), weekend holidays from dosing) was 16% and the tumor growth inhibition ([2]; Colo-205, 10 mg/kg QDx21) was 17%. For the same compound, the tumor growth inhibition ([2]; Colo-205, 30 mg/kg BIDx10) was 49%, the tumor growth inhibition ([2]; Colo-205, 30 mg/kg QDx21) was 40% and the body weight lost ([2]; Colo-205, 100 mg/kg QD and 30 mg/kg BID, within 10 days of dosing) was “greater than 20%”. For the same compound, the tumor growth inhibition ([2]; Colo-205, 100 mg/kg QDx10) was 72% and the body weight loss ([2]; Colo-205, 30 and 10 mg/kg QDx21) was “no body weight loss”.

— US20100216779A1 (GLAXOSMITHKLINE LLC, priority 2007, published 2010)
